Test results: patent US20180092908A1, “SMALL MOLECULE OXIDIZERS OF PDI AND THEIR USE” (THE TRUSTEES OF COLUMBIA UNIVERSITY IN THE CITY OF NEW YORK, priority 2015, published 2018)
Like-named read-outs stand apart in the source and are kept apart here.

Key:
[1] = target: T1, recombinant catalytic a domain of human PDI A1 (PDIa) (Homo sapiens, UniProt P07237); assay: Insulin aggregation assay (PDIa reductase activity); format: biochemical; settings: Table 5
T1 construct: made in house; host or cells: Escherichia coli BL21-Gold (DE3)
Text: In this insulin aggregation assay (Xu et al., 2012; Jasuja et al., 2012; Khan et al., 2011; Smith et al., 2004), PDIa reduced the two disulfide bonds between the α- and β-chains of insulin, causing the β-chain to aggregate and precipitate, resulting in an increase in absorbance at 650 nm.
To investigate the mode of binding further and to determine whether the binding was reversible or irreversible, the recovery of enzymatic activity of PDIa after dilution of pre-formed concentrated PDIa-LOC14 complexes was analyzed. LOC14 (750 μM) was incubated with a concentrated solution of PDIa (500 μM). The mixture was then diluted 100-fold and PDI's enzymatic activity was measured in the insulin reduction assay. As a control, the same procedure was also performed on the sample containing an irreversible inhibitor, 16F16 (16F16 at 750 μM and PDIa at 500 μM). […] This illustrated that unlike 16F16, LOC14 binding to PDIa is reversible.

[2] = target: T2, human catalytic PDI A1 a domain (PDIa) (Homo sapiens, UniProt P07237); assay: Isothermal titration calorimetry (ITC) binding to PDIa
T2 construct: made in house; host or cells: Escherichia coli BL21-Gold (DE3)
Experimental: All ITC experiments were carried out at 25° C. on MicoCal Auto-ITC200 system (GE Healthcare). Reduced PDIa was dialyzed into ITC buffer (20 mM sodium phosphate buffer pH 7.8) and loaded into a sample cell at 40 μM concentration. The compound solution was loaded into a syringe at 400 μM in the same ITC buffer with a final DMSO concentration at 0.4% (v/v). ITC titration experiments were carried out at 25° C. with 19 injections, 2 μl per injection, and 180 seconds between each injection. The reference cell power was set to 5 μcal/sec. A control experiment was performed for each compound, where each compound was titrated into buffer to account for heat released due to dilution. This background was subtracted from test data before a final dissociation constant was obtained. Data were analyzed using a one-site binding model in Origin 7.1 software. […] Gibbs free energy, ΔG, was calculated from equation ΔG=ΔH−TΔS. All other parameters, Ka, n, ΔH, ΔS, were determined directly from the titration data.
For ITC experiments with 16F16 pre-treatment, 40 μM PDIa (after dialysis into ITC buffer) was treated with 200 μM 16F16 for 12-15 hours at 4° C. Next day the whole solution was loaded into the sample cell. LOC14 at 400 μM in ITC buffer was loaded into syringe and titrated into PDIa+16F16 loaded cell. For control experiments, ITC buffer with 200 μM 16F16 was used in the cell, while 400 μM LOC14 in ITC buffer was used in the syringe.
The binding mode of LOC14 to PDIa was next investigated using isothermal titration calorimetry (ITC). ITC measures the heat released or absorbed during a biomolecular interaction. It is a direct analytical method for determining the binding and thermodynamic parameters, such as reaction stoichiometry (n), binding constants (Ka and Kd), enthalpy (ΔH), entropy (ΔS), and free energy (ΔG) of an interaction.

PC12 mHTT^Q103 cells = assay: Rescue of PC12 cells from mHTT^Q103 induced cell death (Alamar blue viability); format: cell-based; settings: Table 5; for EC50: Rattus norvegicus, PC-12, read-out: Cell Viability Assay EC50
Text: PC12 mHTT^Q103 cells were a gift from Erik S. Schweitzer (UCLA School of Medicine, Los Angeles, Calif.). These cells are stably transfected with the first exon of human HTT gene containing the pathogenic 103 CAG/CAA repeat expansion, under the control of the ecdysteroid promoter (Aiken et al., 2004). The plasmid also contains a Bombyx mori ecdysone receptor gene fused at N-terminal with VP16 transactivation domain (Suhr et al., 1998; Vilaboa et al., 2011). Addition of the ecdysone analog, tebufenozide, to the cell culture medium is used to initiate the transcription of mutant HTT (Aiken et al., 2004).
PC12 mHTT^Q103 cells were cultured in DMEM containing 4.5 g/I glucose, 25 mM HEPES, sodium pyruvate, and no L-glutamine (Mediatech, cat. no. 15-018-CV), supplemented with 10% (v/v) Cosmic Calf serum, 2 mM L-glutamine, 100 units/mL of penicillin-streptomycin, and 0.5 mg/ml active geneticin. Cells were grown at 37° C., 9.5% CO2, and the medium was replaced with fresh medium every 2-3 days. To induce mHTT^Q103 expression for experiments, tebufenozide, a gift from Lynne Moore and Fred H. Gage (The Salk Institute for Biological Studies, La Jolla, Calif.), was added to the medium at 200 nM final concentration from 1 mM stock in 85% ethanol.
LOC mother plates with compounds at 4 mg/ml were thawed and spun down (1000 rpm, 20° C., 1 min) prior to use. Biomek FX (Beckman Coulter) robotic liquid dispenser was used to handle all liquid transferring and mixing. […] Two fold serial dilution was performed across five daughter plates by transferring 50 μl of compounds (at […]) from the D1 plate into 50 μl of PC12 medium in daughter plate D2, mixing, and then repeating the process for the remaining three plates. Daughter plate D1 with compounds at […], daughter plate D3 with compounds at 20 μl/ml and daughter plate D5 with compounds at 5 μl/ml were then used for the screen. Assay plates were set up by seeding tebufenozide-induced PC12 mHTT^Q103 cells into 384-well black, clear-bottom plates (Corning Inc. cat. no. 3712) at a density of 7,500 cells per well in 57 μl PC12 medium without geneticin. Three microliters of compound from the daughter plates (D1, D3, and D5) were added to the assay plates for a final compound concentration of 4 μl/ml, 1 μl/ml, and 0.25 μl/ml. Four wells containing uninduced PC12 mHTT^Q103 cells and four wells containing medium only, were also included on each plate as controls. The assay plates were incubated at 37° C., 9.5% CO2 for 48 hours. Twenty microliters of 40% Alamar blue (Life Technologies cat. no. DAL1100) solution in PC12 medium was added to each well (1:10 final dilution) and the plates were incubated for an additional 12-24 hours at 37° C., 9.5% CO2. Alamar blue fluorescence was read on a fluorescence plate reader (PerkinElmer Victor3) with 530 nm excitation filter and 590 nm emission filter. Each compound concentration was tested in triplicate.
The follow-up testing of primary screen hits was performed in a similar way. Fresh powder stocks of primary hits were re-ordered from vendors, dissolved in DMSO and tested in a two-fold serial dilution across 10 wells in both tebufenozide-induced and uninduced PC12 mHTT^Q103 cells. Dose-response curves were plotted as mean±SD and fit to either four-parameter sigmoidal (for uninduced cells) or bell-shaped (induced) function using Prism (GraphPad Software).
A cascade of two assays was used, involving both a phenotypic high-throughput screening (HTS) assay and an in vitro PDI reductase assay, to identify neuroprotective PDI-inhibiting compounds. […] Alamar blue was used as a fluorescent readout for viability after 48 hours of compound treatment and mHTT^Q103 induction. […] All the candidate hit compounds were re-tested in a two-fold dilution series.

[3] = PDIa, Table 5, read-out: ITC Assay KD

T1 sequence (P07237 with tags, fused parts or gaps): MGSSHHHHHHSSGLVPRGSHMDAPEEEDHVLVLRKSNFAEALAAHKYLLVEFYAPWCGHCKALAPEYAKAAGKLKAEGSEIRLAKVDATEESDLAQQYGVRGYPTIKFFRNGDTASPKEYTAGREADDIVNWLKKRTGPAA
T2 sequence (P07237 with tags, fused parts or gaps): as above

Insulin Assay (either active or inactive) [1] | ITC Assay KD ([2]; PDIa, Table 5) | Compound | EC50 (PC12 mHTT^Q103 cells) | other results
not active | KD = N/A irreversible or not active | O=c1[nH]sc2c(Cl)cccc12 [LC-38] |  | 
not active |  | O=c1ssc2ccccc12 [LC-48] |  | 
Active |  | O=c1c2cccnc2sn1CCN1CCOCC1 [LC-55] |  | 
Active |  | O=c1c2cccnc2sn1CCN1CCCCC1 [LC-54] |  | 
not active |  | Cc1ccc(-n2sc3ccccc3c2=O)c(Br)c1 [LC-36] | 1590 nM | Kd [2, 3]: 25.3 nM
not active | KD = N/A irreversible or not active | Cc1ccc(NC(=O)c2ccccc2S)c(Br)c1 [LC-34] | 3770 nM | 
Active |  | O=c1c2cccnc2sn1CCC1CCNCC1 [LC-56] |  | 
Active |  | C[C@H](c1ccccc1)n1sc2ncccc2c1=O [LC-58] |  | 
not active | KD = N/A irreversible or not active | O=c1c2ccccc2sn1-c1ccc(Oc2ccccc2)cc1 [LC-37] | 1680 nM | 
not active | KD = N/A irreversible or not active | O=C(Nc1ccc(Cc2ccccc2)cc1)c1ccccc1S [LC-23] | 3880 nM | 
 |  | O=C(C1CC1)N1CCN(Cn2oc3ccccc3c2=O)CC1 [Oxy-LOC14, 2-((4-(cyclopropanecarbonyl)piperazin-1-yl)methyl)benzo[d]isoxazol-3(2H)-one] |  | loss in binding affinity compared to LOC14 ([2]; ITC, PDIa): 35 fold; Kd ([2]; reduced PDIa 40 μM, compound 400 μM, 25° C., read-out: dissociation constant (Kd)): 2430 nM
Active |  | C[C@H](c1ccccc1)n1sc2ccccc2c1=O [LC-29] | 519 nM | Kd [2, 3]: 658 nM
not active | KD = N/A irreversible or not active | C[C@@H](NC(=O)c1ccccc1S)c1ccccc1 [LC-28] | 808 nM | 
Active | KD = N/A irreversible or not active | NC(=O)c1cccc(F)c1SSc1c(F)cccc1C(N)=O [LC-44] | 7070 nM | 
Active |  | O=c1c2ccccc2sn1CN1CCOCC1 [LC-18] | 547 nM | Kd [2, 3]: 253 nM
not active | KD = N/A irreversible or not active | O=C(Nc1ccc(N2CCOCC2)cc1)c1ccccc1S [LC-21] | 696 nM | 
not active | KD = N/A irreversible or not active | O=c1[nH]sc2c(C(F)(F)F)cccc12 [LC-41] |  | 
not active | KD = N/A irreversible or not active | O=C(Nc1ccc(Oc2ccccc2)cc1)c1ccccc1S [LC-33] | 2940 nM | 
not active | KD = N/A irreversible or not active | O=c1c2ccccc2sn1-c1ccc(Cc2ccccc2)cc1 [LC-25] | 1590 nM | 
Active | KD = N/A irreversible or not active | O=C(C1CC1)N1CCN(Cn2sc3c(F)cccc3c2=O)CC1 [LC-43] | 7410 nM | 
Active |  | O=c1c2ccccc2sn1CN1CCN(Cc2ccccc2)CC1 [LC-22] | 310 nM | Kd [2, 3]: 173 nM
not active | KD = N/A irreversible or not active | O=c1c2ccccc2sn1Cc1ccc(Br)cc1 [LC-26] | 778 nM | 
 |  | O=c1[nH]sc2ccccc12 [BIT fragment, 1,2,Benzisothiazol-3-one] |  | Kd ([2]; PDIa, Table 4, read-out: ITC KD): 142 nM
Active |  | COCCn1sc2ccccc2c1=O [LC-32] | 700 nM | Kd [2, 3]: 158 nM
not active | KD = N/A irreversible or not | O=c1c2ccccc2sn1-c1cccc(F)c1 [LC-31] | 1760 nM | 
not active |  | S=c1ssc2ccccc12 [LC-49] |  | 
not active | KD = N/A irreversible or not active | O=C(C1CC1)N1CCN(Cn2sc3c(Cl)cccc3c2=O)CC1 [LC-39] |  | 
not active | KD = N/A irreversible or not active | O=C(C1CC1)N1CCN(Cn2sc3c(C(F)(F)F)cccc3c2=O)CC1 [LC-42] |  | 
not active | KD = N/A irreversible or not active | NC(=O)c1cccc(C(F)(F)F)c1SSc1c(C(N)=O)cccc1C(F)(F)F [LC-45] |  | 
Active |  | Cc1nnc2s[nH]c(=O)c2c1C [LC-57] | 12200 nM | 

Compound | Insulin Assay (either active or inactive) [1] | ITC Assay KD ([2]; PDIa, Table 5) | EC50 (PC12 mHTT^Q103 cells) | other results
Cn1sccc1=O [LC-35] | Active | KD = N/A irreversible or not active |  | Cell Viability Assay EC50 (PC12 mHTT^Q103 cells): Not Active
O=C(Nc1cccc(F)c1)c1ccccc1S [LC-30] | not active | KD = N/A irreversible or not active | 2990 nM | 
O=C(NCc1ccc(Br)cc1)c1ccccc1S [LC-20] | not active t | KD = N/A irreversible or not active | > 50000 nM | 
